Test results published in US20110151529A1, “METHODS AND PROCESSES FOR PRODUCING ORGANIC ACIDS” (THE OHIO STATE UNIVERSITY, priority 2008, published 2011).

Test system: C. tyrobutyricum adapted culture from the FBB
Assay type: cell-based, Clostridium tyrobutyricum
Settings: butyrate concentration increased from nil to 30 g/L

In the case of `CCCC(=O)O` [butyric acid], the growth ability retained was “more than 50%”.
